# Laboratory results: US8592581B2, “Trisubstituted purine derivatives” (Cyclacel Limited, priority 2007, dated 2013)
# How the values were obtained:
# CYP3A4 = CYP3A4 (Homo sapiens (Human), UniProt P08684); assay: CYP3A4 inhibition, human liver microsomes, midazolam; format: in vitro ADME
# Description: Six test compound concentrations (0.05, 0.25, 0.5, 2.5, 5, 25 μM in DMSO; final DMSO concentration 0.26%) were incubated with human liver microsomes (0.25 mg/mL) and NADPH (1 mM) in the presence of the probe substrate midazolam (2.5 μM) for 5 min at 37° C. The selective CYP3A4 inhibitor, ketoconazole, was screened alongside the test compounds as a positive control.
# For the CYP1A incubations, the reactions were terminated by the addition of methanol, and the formation of the metabolite, resorufin, was monitored by fluorescence (excitation wavelength=535 nm, emission wavelength=595 nm). For the CYP2C9, CYP2C19, CYP2D6, and CYP3A4 incubations, the reactions were terminated by the addition of methanol containing internal standard. The samples were then centrifuged, and the supernatants were combined, for the simultaneous analysis of 4-hydroxytolbutamide, 4-hydroxymephenyloin, dextrorphan, and 1-hydroxymidazolam plus internal standard by LC-MS/MS using generic LC-MS/MS conditions. Formic acid in deionised water (final concentration=0.1%) was added to the final sample prior to analysis.
# H2052 = assay: Alamar blue cytotoxicity assay H2052; format: cell-based; details: Homo sapiens, NCI-H2052; 72 hours; read-out: cellular cytotoxicity IC50 H2052
# Description: (§1) In order to determine the cellular potency of the compounds, the cytotoxicity of each compound was determined against a range of cell lines. Standard cytotoxicity methods were performed as follows: cells were seeded in 96-well plates appropriately for their doubling time (2-5000 cells per well) in RPMI or DMEM media containing 10% FCS and incubated overnight at 37° C., 5% CO2. The media was removed and 100 μl fresh media containing increasing concentrations of appropriate compound was added and the cells incubated for 72 hours at 37° C., 5% CO2. A 10% stock of alamar blue (Roche, Lewes, United Kingdom) was prepared in medium and 100 μl added to the cells which were incubated for 2 hours. Absorbance was measured on the Wallac Victor 2 1420 multi-label counter at 544-595 nm.
# NCI-H460 = assay: Alamar blue cytotoxicity assay NCI-H460; format: cell-based; details: Homo sapiens, 72 hours, read-out: cellular cytotoxicity IC50 NCI-H460
# Description: as §1
# A549 = assay: Alamar blue cytotoxicity assay A549; format: cell-based; details: Homo sapiens, 72 hours, read-out: cellular cytotoxicity IC50 A549
# Description: as §1
# MCF7 = assay: Alamar blue cytotoxicity assay MCF7; format: cell-based; details: Homo sapiens, 72 hours, read-out: cellular cytotoxicity IC50 MCF7
# Description: as §1
# CDK 2 and CDK9 = assay: In-vitro kinase potency screen against CDK 2 and CDK9 (statements in words); format: biochemical; details: Table 7 (not given): [A1], [A2], [A3] and [1]
# Description: To evaluate the in-vitro kinase potency of the compounds, they were screened against CDK 2 and CDK9. Kinase assays were performed in 96-well plates using recombinant CDK/cyclins generated at Cyclacel. Ltd Dundee, UK. CDK2 and CDK9 assays were performed in a total volume of 25 μl in assay buffer (25 mM b-glycerophosphate, 20 mM MOPS, 5 mM EGTA, 1 mM DTT and 1 mM NaVO3, pH 7.4), into which were added 2-4 μg of active enzyme with appropriate substrates (purified histone H1 for CDK2/cyclin E, and CDK2/cyclin A, biotinyl-Ahx-(YSPTSPS)4 for CDK9/cyclin T1). The reaction was initiated by addition of Mg/ATP mix (15 mM MgCl2+100 μM ATP with 30-50 kBq per well of [—^32P]-ATP) and mixtures incubated for 15 min (CDK2/cyclin E), 30 min (CDK2/cyclin A) or 45 min (CDK9/cyclin T1) as required, at 30° C. […] After washing 3 times with 75 mM orthophosphoric acid, plates were dried, scintillant added and incorporated radioactivity measured in a scintillation counter (TopCount, Packard Instruments, Pangbourne, Berks, UK). […]
# To evaluate the in-vitro kinase potency of the compounds, they were screened against CDK 2 and CDK9. […] After washing 3 times with 75 mM orthophosphoric acid, plates were dried, scintillant added and incorporated radioactivity measured in a scintillation counter (TopCount, Packard Instruments, Pangbourne, Berks, UK). […]
# Chain of CYP3A4 (P08684 whole entry): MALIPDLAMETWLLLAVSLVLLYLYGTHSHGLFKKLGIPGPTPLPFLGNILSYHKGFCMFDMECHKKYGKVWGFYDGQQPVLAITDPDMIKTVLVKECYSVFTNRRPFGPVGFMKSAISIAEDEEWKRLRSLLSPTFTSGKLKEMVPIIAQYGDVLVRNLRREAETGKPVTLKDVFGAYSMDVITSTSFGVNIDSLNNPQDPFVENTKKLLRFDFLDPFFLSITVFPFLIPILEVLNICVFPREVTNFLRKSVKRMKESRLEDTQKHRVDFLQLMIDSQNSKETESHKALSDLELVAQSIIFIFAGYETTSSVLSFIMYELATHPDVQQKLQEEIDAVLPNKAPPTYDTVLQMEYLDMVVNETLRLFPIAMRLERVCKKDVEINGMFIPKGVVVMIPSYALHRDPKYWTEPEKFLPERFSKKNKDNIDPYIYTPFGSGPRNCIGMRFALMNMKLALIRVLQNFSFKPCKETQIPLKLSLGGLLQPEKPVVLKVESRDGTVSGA
smiles,measurement,setting,value
CC[C@H](Nc1nc(NCc2cnc(C)cc2C)c2ncn(C(C)C)c2n1)[C@@H](C)O [Compound [1]],CYP3A4-inhibiting concentration as multiple of cellular IC50,CYP3A4,~60 times
same,concentration up to which CYP3A4 is not inhibited,CYP3A4,greater than 20 μM
same,inhibition of CYP3A4 (in words),CYP3A4,does not significantly inhibit CYP3A4
same,IC50,CYP3A4; human liver microsomes,22.5 µM
same,IC50,H2052,290 nM
same,IC50,NCI-H460,500 nM
same,IC50,A549,160 nM
same,IC50,MCF7,260 nM
same,kinase inhibitor potency ranking (in words),CDK 2 and CDK9,most potent kinase inhibitors
